Consider ten molecules from patent US5198358A, “Microorganism for producing C-31 desmethyl FR-900520 cyclic hemiketal immunosuppressant agent” (Merck & Co., Inc., priority 1991, dated 1993).

What is called IC50 is the point on the concentration scale where inhibition reaches its midpoint. Usually inhibition stands for the change of the read-out against control, counted positive when it falls. What is called Km is the substrate concentration at which the rate is half of its maximum. In general, Vmax refers to the rate approached at saturating substrate.

“And” between values parts separate entries of the source, which are not always exact repeats. Equal entries are not always repeated. “Also recorded” adds a separate entry of the source. Where two headings read alike, the source gives them in different places.

Data set [1] addresses T1, 31-O-desmethylimmunomycin O-methyltransferase (DIMT) (Streptomyces hygroscopicus, UniProt Q9KID5).
T1 sequence (Q9KID5 1-260): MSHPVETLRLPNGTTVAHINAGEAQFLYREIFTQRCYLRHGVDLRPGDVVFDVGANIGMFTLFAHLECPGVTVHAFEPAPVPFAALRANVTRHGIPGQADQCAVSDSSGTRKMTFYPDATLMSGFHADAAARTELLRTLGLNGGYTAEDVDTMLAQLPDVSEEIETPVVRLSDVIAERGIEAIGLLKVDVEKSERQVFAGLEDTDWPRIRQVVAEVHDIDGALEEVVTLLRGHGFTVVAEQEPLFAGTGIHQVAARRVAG
In words: S-adenosyl-L-methionine: 31-O-desmethylimmunomycin O-methyltransferase (DIMT) assay. How it is done:
The assay was carried out in 1 ml. mixture containing 0.025 mM 31-desmethylimmunomycin, 1 mM MgSO4 and different quantities of the enzyme source in 50 mM phosphate buffer, pH 7.5. Reaction was initiated by the addition of 1 nmole of ^14 C-SAM (S-adenosyl-L-[methyl-^14 C] methionine with the specific activity of 46 mCi/mmole. Incubation of the complete mixture was carried out at 34° C. for 20 minutes and the reaction was terminated by the addition of ethyl acetate. Product of the reaction was extracted with 2 ml of ethyl acetate and 1 ml of the extract was used for TLC and HPLC analysis. For the analysis of the radioactive reaction product (immunomycin), the ethyl acetate extract was spiked with the standard immunomycin and subjected to the TLC with a plate having plastic support. The plastic sheet was developed in chloroform:methanol (9:1) and area showing standard immunomycin under UV-light was cut and the radioactivity in the cut-strip was measured. The amount of the product formed was calculated from the measured radioactivity. For the HPLC analysis of the product of the enzyme reaction, several enzymatic reaction mixtures were pooled and the extract was subjected to the TLC analysis as above. The area on the silica gel plate showing the band having an Rf value identical with the standard immunomycin was scraped and eluted with ethyl acetate. The ethyl acetate extract was washed with water, dried under nitrogen and the residue was subjected to the HPLC analysis on Partisil 5-ODS-3 column with acetonitrile:water:phosphoric acid (65:35:0.1) as the eluting solvent. One milliliter fractions were collected and a portion of each fraction was examined for the radioactivity.
Examination of the optimal temperature, pH and metal requirement of the DIMT activity was carried out on the enzyme preparation obtained from DEAE-Sepharose column. For kinetic analysis, a preparation which had been purified through a second MonoQ column chromatography was utilized.

The test system of data set [2] is Splenic T-cells stimulated with ionomycin + PMA. Description: T-cell proliferation assay (ionomycin plus PMA induced T-cell stimulation). The data set is classed as cell-based, mouse. Conditions: for Inhibition of T-cell activation (result in words): T-cell proliferation assay. The procedure: Cells were pelleted by centrifugation at 1500 rpm for 8 minutes. Contaminating red cells were removed by treating the pellet with ammonium chloride lysing buffer (GIBCO) for 2 minutes at 4° C. Cold medium was added and cells were again centrifuged at 1500 rpm for 8 minutes. T lymphocytes were then isolated by separation of the cell suspension on nylon wool columns as follows: Nylon wool columns were prepared by packing approximately 4 grams of washed and dried nylon wool into 20 ml plastic syringes. The columns were sterilized by autoclaving at 250° F. for 30 minutes. Nylon wool columns were wetted with warm (37° C.) culture medium and rinsed with the same medium. Washed spleen cells resuspended in warm medium were slowly applied to the nylon wool. The columns were then incubated in an upright position at 37° C. for 1 hour. Non-adherent T lymphocytes were eluted from the columns with warm culture medium and the cell suspensions were spun as above.
The cell suspension was immediately distributed into 96 well flat-bottom microculture plates (Costar) at 200 μl/well. […] The proliferation of T lymphocytes was assessed by measurement of tritiated thymidine incorporation. After 44 hours of culturing, the cells were pulse-labelled with 2 μCi/well of tritiated thymidine (NEN, Cambridge, Mass.). After another 4 hours of incubation, cultures were harvested on glass fiber filters using a multiple sample harvester. Radioactivity of filter discs corresponding to individual wells was measured by standard liquid scintillation counting methods (Betacounter). Mean counts per minute of replicate wells were calculated and the results expressed as percent inhibition of tritiated thymidine uptake (proliferation) as follows: [formula]

The conditions of data set [3]: reputed; EPO Publication No. 0184162; cited from earlier work.
Substrate in data set [4]: C[S+](CC[C@H](N)C(=O)[O-])C[C@H]1O[C@@H](n2cnc3c(N)ncnc32)[C@H](O)[C@@H]1O
In words: purified protein, by the assay type. As to conditions: other: SAM as variable substrate, 25 umM 31-O-desmethylimmunomycin as cosubstrate; pH 7.5.
Description: The assay was carried out in 1 ml. mixture containing 0.025 mM 31-desmethylimmunomycin, 1 mM MgSO4 and different quantities of the enzyme source in 50 mM phosphate buffer, pH 7.5. Reaction was initiated by the addition of 1 nmole of ^14 C-SAM (S-adenosyl-L-[methyl-^14 C] methionine with the specific activity of 46 mCi/mmole. Incubation of the complete mixture was carried out at 34° C. for 20 minutes and the reaction was terminated by the addition of ethyl acetate. Product of the reaction was extracted with 2 ml of ethyl acetate and 1 ml of the extract was used for TLC and HPLC analysis. For the analysis of the radioactive reaction product (immunomycin), the ethyl acetate extract was spiked with the standard immunomycin and subjected to the TLC with a plate having plastic support. The plastic sheet was developed in chloroform:methanol (9:1) and area showing standard immunomycin under UV-light was cut and the radioactivity in the cut-strip was measured. The amount of the product formed was calculated from the measured radioactivity. For the HPLC analysis of the product of the enzyme reaction, several enzymatic reaction mixtures were pooled and the extract was subjected to the TLC analysis as above. […] One milliliter fractions were collected and a portion of each fraction was examined for the radioactivity. […]

Substrate in data set [5]: [H][C@@]1(/C=C(\C)[C@@]2([H])OC(=O)[C@]3([H])CCCCN3C(=O)C(=O)[C@]3(O)O[C@]([H])([C@@H](OC)C[C@@H](C)C/C(C)=C/[C@@H](CC)C(=O)C[C@H](O)[C@H]2C)[C@@H](OC)C[C@H]3C)CC[C@@H](O)[C@H](O)C1
Description: purified protein, by the assay type. Conditions: other: 31-O-desmethylimmunomycin as variable substrate, 40 uM SAM; Lineweaver-Burk; pH 7.5.

Setting [6] is: Mus musculus, T-cell, HPLC purified samples, evaluated in the same set of experiments, read-out: IC50 (biological activity).

Turning to `CC[C@@H]1/C=C(\C)C[C@H](C)C[C@H](OC)[C@H]2O[C@@](O)(C(=O)C(=O)N3CCCC[C@H]3C(=O)O[C@H](/C(C)=C/[C@@H]3CC[C@@H](O)[C@H](O)C3)[C@H](C)[C@@H](O)CC1=O)[C@H](C)C[C@@H]2OC` [31-O-desmethylimmunomycin], the “apparent Vmax” value in data set [1] (31-O-desmethylimmunomycin as variable substrate, 40 uM SAM, Lineweaver-Burk) was 45.5 nmol/h/mg.

For `CC[C@@H]1C=C2COC1(O)C[C@H](O)[C@@H](C)[C@@H](/C(C)=C/[C@@H]1CC[C@@H](O)[C@H](OC)C1)OC(=O)[C@@H]1CCCCN1C(=O)C(=O)[C@]1(O)O[C@H]([C@@H](OC)C[C@@H](C)C2)[C@@H](OC)C[C@H]1C` [Compound II], the IC50 in data set [2] (setting [6]) was roughly 6 nM. In addition, in data set [2], the “Inhibition of T-cell activation (result in words)” value is given as “positive inhibition of T-cell activation; also recorded: positive results”.

Turning to `CC[C@@H]1C=C2COC1(O)C[C@H](O)[C@@H](C)[C@@H](/C(C)=C/[C@@H]1CC[C@@H](O)[C@H](O)C1)OC(=O)[C@@H]1CCCCN1C(=O)C(=O)[C@]1(O)O[C@H]([C@@H](OC)C[C@@H](C)C2)[C@@H](OC)C[C@H]1C` [Compound I], in data set [2] (Mus musculus, T-cell, 2.5 nM, tritiated thymidine uptake, harvest at 48 hours, read-out: Percent of Inhibition), the inhibition at 0.0025 µM was found to be 0%. The inhibition at 0.0049 µM in data set [2] (Mus musculus, T-cell, 4.9 nM, tritiated thymidine uptake, harvest at 48 hours, read-out: Percent of Inhibition) worked out at 0%. The inhibition at 0.0099 µM in data set [2] (Mus musculus, T-cell, 9.9 nM, tritiated thymidine uptake, harvest at 48 hours, read-out: Percent of Inhibition) stood at 39%. Moreover, the inhibition at 0.0197 µM in data set [2] (Mus musculus, T-cell, 19.7 nM, tritiated thymidine uptake, harvest at 48 hours, read-out: Percent of Inhibition) worked out at 65%. Further, the inhibition at 0.0394 µM in data set [2] (Mus musculus, T-cell, 39.4 nM, tritiated thymidine uptake, harvest at 48 hours, read-out: Percent of Inhibition) is 89%. The inhibition at 0.0788 µM in data set [2] (Mus musculus, T-cell, 78.8 nM, tritiated thymidine uptake, harvest at 48 hours, read-out: Percent of Inhibition) worked out at 95%. Moreover, the inhibition at 0.1576 µM in data set [2] (Mus musculus, T-cell, 157.6 nM, tritiated thymidine uptake, harvest at 48 hours, read-out: Percent of Inhibition) is 98%. In addition, the inhibition at 0.3152 µM in data set [2] (Mus musculus, T-cell, 315.2 nM, tritiated thymidine uptake, harvest at 48 hours, read-out: Percent of Inhibition) stood at 98%. For the same molecule, the IC50 in data set [2] (setting [6]) was roughly 11 nM; in data set [2] (Mus musculus, T-cell proliferation, Example 4, read-out: IC50), 0.0115 µg/mL and 14.5 nM. Besides, the “Inhibition of T-cell activation (result in words)” value in data set [2] was “positive inhibition of T-cell activation; also recorded: antagonist activity versus the FK-506 immunosuppressive activity”. For the same molecule, the “Effect of IL2 on inhibition of T-cell proliferation” value in data set [2] (addition of 50 units/ml of recombinant IL2 at the initiation of culture) is on record as “reversed”.

Take `O=C(O)CN(CCN(CC(=O)O)CC(=O)O)CC(=O)O` [EDTA]: the “Inhibition of DIMT activity” value was “major inhibition” in data set [1] and “completely inhibited” in data set [1] (crude extract).

`C=CC[C@@H]1/C=C(\C)C[C@H](C)C[C@H](OC)[C@H]2O[C@@](O)(C(=O)C(=O)N3CCCC[C@H]3C(=O)O[C@H](/C(C)=C/[C@@H]3CC[C@@H](O)[C@H](OC)C3)[C@H](C)[C@@H](O)CC1=O)[C@H](C)C[C@@H]2OC` [FR900506, reference compound]: the inhibition at 0.01 µg/mL in data set [2] (Mus musculus, T-cell, 10 ng/ml, standard) came out at 99%. In data set [3], the “Effectiveness relative to cyclosporin” value is on record as 100 times.

For the molecule `CC[C@@H]1/C=C(\C)C[C@H](C)C[C@H](OC)[C@H]2O[C@@](O)(C(=O)C(=O)N3CCCC[C@H]3C(=O)O[C@H](/C(C)=C/[C@@H]3CC[C@@H](O)[C@H](OC)C3)[C@H](C)[C@@H](O)CC1=O)[C@H](C)C[C@@H]2OC` [FR-900520, 17-Ethyl-1,14-dihydroxy-12-[2-(4-hydroxy-3-methoxycyclohexyl)-1-methylvinyl]-23-25-dimethoxy-13,19,21,27-tetramethyl-11,28-dioxa-4-azatricyclo [22.3.1.0^4,9]octacos-18-ene-2,3,10,16-tetraone], the IC50 in data set [2] (setting [6]) was roughly 1 nM.

For the molecule `Nc1ncnc2c1ncn2[C@@H]1O[C@H](CSCC[C@H](N)C(=O)O)[C@@H](O)[C@H]1O` [S-adenosyl-homocysteine (SAH), S-adenosyl-homocysteine], the “Inhibition of DIMT activity” value in data set [1] is “major inhibition”.

For `N.N.O=S(=O)(O)O` [ammonium sulfate], the “Inhibition of DIMT activity” value in data set [1] (crude extract) is reported as “inhibited”.

For the molecule `Nc1ncnc2c1ncn2[C@@H]1O[C@H](C[C@@H](N)CC[C@H](N)C(=O)O)[C@@H](O)[C@H]1O` [sinefungin], the “Inhibition of DIMT activity” value in data set [1] is given as “major inhibition”.

B1: 31-O-desmethylimmunomycin O-methyltransferase (DIMT) (Streptomyces hygroscopicus subsp. ascomyceticus) (protein)
chain: MSHPVETLRLPNGTTVAHINAGEAQFLYREIFTQRCYLRHGVDLRPGDVVFDVGANIGMFTLFAHLECPGVTVHAFEPAPVPFAALRANVTRHGIPGQADQCAVSDSSGTRKMTFYPDATLMSGFHADAAARTELLRTLGLNGGYTAEDVDTMLAQLPDVSEEIETPVVRLSDVIAERGIEAIGLLKVDVEKSERQVFAGLEDTDWPRIRQVVAEVHDIDGALEEVVTLLRGHGFTVVAEQEPLFAGTGIHQVAARRVAG
Turning to B1, the Km was found to be 12.5 µM in data set [4] and 11 µM in data set [5]. Moreover, the Vmax in data set [4] was found to be 100 nmol/h/mg.
